Like-named read-outs stand apart in the source and are kept apart here.
Columns and labels:
tubulin = test: Inhibition of polymerization of purified tubulin; type: biochemical, bovine; conditions: for IC50: extent of polymerization after 20 min incubation, 26° C., 350 nm, read-out: Inhibn of Tubulin Polymn IC50
Description: Electrophoretically homogeneous tubulin was purified from bovine brain as described previously (Hamel et al., Biochemistry 23:4173-4184 (1984)). Determination of IC50 values for the polymerization of purified tubulin was performed as described in D'Amato et al. Proc. Natl. Acad. Sci. U.S.A. 91:3964-3968 (1994). Tubulin was preincubated at 26° C. with varying compound concentrations, reaction mixtures were chilled on ice, GTP (required for the polymerization reaction) was added, and polymerization was followed at 26° C. by turbidimetry at 350 nm in Gilford recording spectrophotometers equipped with electronic temperature controllers. Four instruments were used, and two control reaction mixtures were present in each experiment. The extent of polymerization after a 20 min incubation was determined (the values for the two controls were usually within 5% of each other). IC50 values were determined graphically. […] Inhibition of colchicine binding to tubulin was performed as described previously (D. Amato et al., Proc. Natl. Acad. Sci. U.S.A. 91:3964-3968 (1994)). […] Incubation was for 30 min at 37° C.

[1] = tested on: HOP-62 non-small-cell lung cancer cells; test: NCI anticancer screen, cytotoxicity, HOP-62 non-small-cell lung cancer cells; type: cell-based; conditions: Homo sapiens
Description: (§1) The effects of the analogs on cancer cell growth was investigated in the National Cancer Institute (NCI) Developmental Therapeutics Program's in vitro panel of approximately 55 cell lines (Grever et al., Seminars in Oncology 19:622 (1992), Alley et al., Cancer Research 48:589 (1988) and Montes et al., J. National Cancer Institute 83:757 (1991)).

[2] = tested on: HCT-116 colon cancer cells; test: NCI anticancer screen, cytotoxicity, HCT-116 colon cancer cells; type: cell-based; conditions: Homo sapiens
Description: as §1

[3] = tested on: SF-539 central nervous system (CNS) cancer cells; test: NCI anticancer screen, cytotoxicity, SF-539 central nervous system (CNS) cancer cells; type: cell-based; conditions: Homo sapiens
Description: as §1

UACC-62 melanoma cells = test: NCI anticancer screen, cytotoxicity, UACC-62 melanoma cells; type: cell-based; conditions: Homo sapiens
Description: as §1

[4] = tested on: OVCAR ovarian cancer cells; test: NCI anticancer screen, cytotoxicity, OVCAR ovarian cancer cells; type: cell-based; conditions: Homo sapiens, read-out: cytotoxicity GI50, Ovarian OVCAR
Description: as §1

[5] = tested on: SN12--C renal cancer cells; test: NCI anticancer screen, cytotoxicity, SN12-C renal cancer cells; type: cell-based; conditions: Homo sapiens, SN12C, read-out: cytotoxicity GI50, Renal SN12-C
Description: as §1

[6] = tested on: DU-145 prostate cancer cells; test: NCI anticancer screen, cytotoxicity, DU-145 prostate cancer cells; type: cell-based; conditions: Homo sapiens
Description: as §1

[7] = tested on: MDA-MB-435 breast cancer cells; test: NCI anticancer screen, cytotoxicity, MDA-MB-435 breast cancer cells; type: cell-based; conditions: Homo sapiens
Description: as §1

[8] = tested on: human cancer cell lines (approximately 55); test: NCI anticancer screen, in vitro panel of approximately 55 cell lines; type: cell-based; conditions: for GI50: read-out: cytotoxicity MGM (mean graph midpoint for all human cancer cell lines tested)
Description: as §1

solid tumors = conditions: in mice; Fotsis et al., Nature 368:237 (1994); cited from earlier work
[9] = HOP-62, read-out: cytotoxicity GI50, Lung HOP-62
[10] = HCT-116, read-out: cytotoxicity GI50, Colon HCT-116
[11] = SF-539, read-out: cytotoxicity GI50, CNS SF-539
[12] = UACC-62, read-out: cytotoxicity GI50, Melanoma UACC-62
[13] = DU-145, read-out: cytotoxicity GI50, Prostate DU-145
[14] = MDA-MB-435, read-out: cytotoxicity GI50, Breast MDA-MB-435

Structure (SMILES)	IC50 (tubulin) [nM]	GI50 [1, 9] [nM]	GI50 [2, 10] [nM]	GI50 [3, 11] [nM]	GI50 (UACC-62 melanoma cells; [12]) [nM]	GI50 [4] [nM]	GI50 [5] [nM]	GI50 [6, 13] [nM]	GI50 [7, 14] [nM]	GI50 ([8]; Homo sapiens) [nM]	other results
COc1cc2c(cc1O)CC[C@@H]1[C@@H]2CC[C@]2(C)[C@@H](O)CC[C@@H]12 [Compound 1, 2-methoxy estradiol, reference compound]	2900 ± 600										GI50 ([1]; HOP-62, concentration corresponding to 50% growth inhibition, read-out: cytotoxicity GI50, Lung HOP-62): 700 nM; GI50 ([2]; HCT-116, concentration corresponding to 50% growth inhibition, read-out: cytotoxicity GI50, Colon HCT-116): 470 nM; GI50 ([3]; SF-539, concentration corresponding to 50% growth inhibition, read-out: cytotoxicity GI50, CNS SF-539): 320 nM; GI50 (UACC-62 melanoma cells; UACC-62, concentration corresponding to 50% growth inhibition, read-out: cytotoxicity GI50, Melanoma UACC-62): 360 nM; GI50 ([4]; OVCAR, concentration corresponding to 50% growth inhibition): 210 nM; GI50 ([5]; SN12-C, concentration corresponding to 50% growth inhibition): 950 nM; GI50 ([6]; DU-145, concentration corresponding to 50% growth inhibition, read-out: cytotoxicity GI50, Prostate DU-145): 1800 nM; GI50 ([7]; MDA-MB-435, concentration corresponding to 50% growth inhibition, read-out: cytotoxicity GI50, Breast MDA-MB-435): 80 nM; GI50 ([8]; approximately 55 human cancer cell lines, GI50): 1300 nM; apparent signs of toxicity at tumor growth inhibiting doses (solid tumors): no apparent signs of toxicity; inhibition of growth of solid tumors (solid tumors): inhibits their growth; inhibition of neovascularization of solid tumors (solid tumors): potent inhibitor of neovascularization of solid tumors
CCOc1cc2c(cc1O)CC[C@@H]1[C@@H]2CC[C@]2(C)[C@@H](O)CC[C@@H]12 [Compound 10, 2-Ethoxyestra-1,3,5(10)-trien03,17β-diol]	910 ± 500	18	26	14	16	16	39	65	< 10	76	activity on tubulin polymerization relative to 2-methoxy estradiol (1) (tubulin; compared with 2-methoxy estradiol (1)): over three times more active; activity against all the cell lines listed in Table 1 relative to 2-methoxy estradiol (1) ([8]; all the cell lines listed in Table 1, compared with 2-methoxy estradiol (1)): more active
C[C@]12CC[C@@H]3c4cc(OCC(F)(F)F)c(O)cc4CC[C@H]3[C@@H]1CC[C@@H]2O [Compound 9, 2-(2',2',2'-Trifluoroethoxy)estra-1,3,5(10)-Trien-3,17β-Diol]	1700	11600	3220	1380	2320	460	4460	7050	280	2630	
